The subject of one data set is Chilo suppressalis. Put plainly: Activity against Chilo suppressalis (striped rice stemborer), artificial diet in 24-well plates. Type of data set: in vivo. The following applies: 144 h, application rate 200 ppm, L2 larvae, 6 days after infestation. The protocol: 24-well microtiter plates with artificial diet were treated with aqueous test solutions prepared from 10′000 ppm DMSO stock solutions by pipetting. After drying, the plates were infested with L2 larvae (6-8 per well). The samples were assessed for mortality, anti-feeding effect, and growth inhibition in comparison to untreated samples 6 days after infestation. Control of Chilo suppressalis by a test sample is given when at least one of the categories mortality, anti-feedant effect, and growth inhibition is higher than the untreated sample.

Another data set has as its system Diabrotica balteata. As to the kind of experiment: Activity against Diabrotica balteata (corn root worm), sprayed maize sprouts. Format: in vivo. The following applies: 96 h, application rate 200 ppm, L2 larvae, 4 days after infestation, read-out: effect in at least one of the two categories (mortality or growth inhibition). The protocol:
Maize sprouts placed onto an agar layer in 24-well microtiter plates were treated with aqueous test solutions prepared from 10′000 ppm DMSO stock solutions by spraying. After drying, the plates were infested with L2 larvae (6 to 10 per well). The samples were assessed for mortality and growth inhibition in comparison to untreated samples 4 days after infestation.
(§1) Activity of compound P5 according to the preparatory examples and of compound P.118 from WO 21/083936 against Plutella xylostella ([…]) and Diabrotica balteata (Example B2) is summarized in Table B9.

The test system of the next data set is Plutella xylostella. As to the kind of experiment: Activity against Plutella xylostella (diamond back moth), artificial diet. Type of data set: in vivo. The following applies: 192 h, application rate 200 ppm, eggs, 8 days after infestation, read-out: effect in at least one of the two categories (mortality or growth inhibition). Here is the method:
24-well microtiter plates with artificial diet were treated with aqueous test solutions prepared from 10′000 ppm DMSO stock solutions by pipetting. After drying, Plutella eggs were pipetted through a plastic stencil onto a gel blotting paper and the plate was closed with it. The samples were assessed for mortality and growth inhibition in comparison to untreated samples 8 days after infestation.
as §1

The subject of data set [1] is Myzus persicae. Put plainly: Activity against Myzus persicae (green peach aphid), feeding/contact activity. Format: in vivo. The following applies: 144 h, application rate 200 ppm, mixed ages, 6 days after infestation. The protocol:
Sunflower leaf discs were placed onto agar in a 24-well microtiter plate and sprayed with aqueous test solutions prepared from 10′000 ppm DMSO stock solutions. After drying, the leaf discs were infested with an aphid population of mixed ages. The samples were assessed for mortality 6 days after infestation.

Another data set has as its system Spodoptera littoralis. As to the kind of experiment: Activity against Spodoptera littoralis (Egyptian cotton leaf worm), sprayed cotton leaf discs. Format: in vivo. The following applies: foliar, 72 h, application rate 200 ppm, L1 larvae, 3 days after infestation. The protocol: Cotton leaf discs were placed onto agar in 24-well microtiter plates and sprayed with aqueous test solutions prepared from 10′000 ppm DMSO stock solutions. After drying the leaf discs were infested with five L1 larvae. The samples were assessed for mortality, anti-feeding effect, and growth inhibition in comparison to untreated samples 3 days after infestation. Control of Spodoptera littoralis by a test sample is given when at least one of the categories mortality, anti-feedant effect, and growth inhibition is higher than the untreated sample.

Data set [2] deals with Frankliniella occidentalis. Put plainly: Activity against Frankliniella occidentalis (western flower thrips), sprayed sunflower leaf discs. Type of data set: in vivo. The following applies: foliar, 168 h, application rate 200 ppm, mixed ages, 7 days after infestation. The protocol:
Sunflower leaf discs were placed on agar in 24-well microtiter plates and sprayed with aqueous test solutions prepared from […] stock solutions. After drying the leaf discs were infested with a Frankliniella population of mixed ages. The samples were assessed for mortality 7 days after infestation.

For a further data set, the system named is Euschistus heros. As to the kind of experiment: Activity against Euschistus heros (neotropical brown stink bug), sprayed soybean leaves. Type of data set: in vivo. The following applies: 120 h, application rate 200 ppm, N2 nymphs, 5 days after infestation, read-out: effect in at least one of the two categories (mortality or growth inhibition). The protocol: Soybean leaves on agar in 24-well microtiter plates were sprayed with aqueous test solutions prepared from 10′000 ppm DMSO stock solutions. After drying the leaves were infested with N2 nymphs. The samples were assessed for mortality and growth inhibition in comparison to untreated samples 5 days after infestation.

In data set [3] the test system is Myzus persicae. As to the kind of experiment: Activity against Myzus persicae (green peach aphid), intrinsic activity. Type of data set: in vivo. The following applies: 120 h, test rate 12 ppm, 5 days after infestation. Here is the method: Test compounds prepared from 10′000 ppm DMSO stock solutions were applied by pipette into 24-well microtiter plates and mixed with sucrose solution. The plates were closed with a stretched Parafilm. A plastic stencil with 24 holes was placed onto the plate and infested pea seedlings were placed directly on the Parafilm. The infested plate was closed with a gel blotting paper and another plastic stencil and then turned upside down. The samples were assessed for mortality 5 days after infestation.

Regarding `C[C@H](Nc1ncnc2c(Br)cc(Br)cc12)c1ncnn1-c1ncc(C#N)s1` [P14, 2-[5-[(1S)-1-[(6,8-dibromoquinazolin-4-yl)amino]ethyl]-1,2,4-triazol-1-yl]thiazole-5-carbonitrile], the percent control (mortality, anti-feedant effect or growth inhibition) at 200 ppm in the data set on Chilo suppressalis and in the data set on Spodoptera littoralis was at least 80% throughout. For the same molecule, the percent effect (mortality or growth inhibition) at 200 ppm in the data set on Diabrotica balteata and with Plutella xylostella was at least 80% each time. Also, the mortality at 200 ppm with Myzus persicae [1] was at least 80%.

`C[C@H](Nc1ncnc2c(Cl)cc(I)cc12)c1ncnn1-c1ncc(C#N)s1` [P20, 2-[5-[(1S)-1-[(8-chloro-6-iodo-quinazolin-4-yl)amino]ethyl]-1,2,4-triazol-1-yl]thiazole-5-carbonitrile]: the percent control (mortality, anti-feedant effect or growth inhibition) at 200 ppm in the data set with Chilo suppressalis and in the data set with Spodoptera littoralis was at least 80% each time. Also, the percent effect (mortality or growth inhibition) at 200 ppm with Diabrotica balteata and in the data set with Plutella xylostella was at least 80% throughout. In [2], this molecule displayed a mortality at 200 ppm of at least 80%.

Regarding `C[C@@H](c1ncnn1-c1ncc(C#N)s1)N(C)c1ncnc2c(Cl)cc(C(F)(F)F)cc12` [P17, 2-[5-[(1S)-1-[[8-chloro-6-(trifluoromethyl)quinazolin-4-yl]-methyl-amino]ethyl]-1,2,4-triazol-1-yl]thiazole-5-carbonitrile], the percent effect (mortality or growth inhibition) at 200 ppm in the data set on Euschistus heros, in the data set on Diabrotica balteata and with Plutella xylostella was at least 80% each time. Besides, the percent control (mortality, anti-feedant effect or growth inhibition) at 200 ppm in the data set with Chilo suppressalis and in the data set on Spodoptera littoralis was at least 80% throughout.

Regarding `C[C@H](Nc1ncnc2c(Cl)cc(C(F)(F)F)cc12)c1ncnn1-c1ncc(C#N)s1` [P15, 2-[5-[(1S)-1-[[8-chloro-6-(trifluoromethyl)quinazolin-4-yl]amino]ethyl]-1,2,4-triazol-1-yl]thiazole-5-carbonitrile], the percent control (mortality, anti-feedant effect or growth inhibition) at 200 ppm with Chilo suppressalis and in the data set with Spodoptera littoralis was at least 80% in each case. The percent effect (mortality or growth inhibition) at 200 ppm in the data set with Diabrotica balteata and with Plutella xylostella was at least 80% in each case. In the data set on Myzus persicae [3], this molecule came in with a mortality at 12 ppm of at least 80%.

Regarding `CC(Nc1nc(Cl)nc2c(Br)cc(C(F)(F)F)cc12)c1nccnc1-c1ncc(Br)s1` (stereo not drawn) [P3, 8-bromo-N-[1-[3-(5-bromothiazol-2-yl)pyrazin-2-yl]ethyl]-2-chloro-6-(trifluoromethyl)quinazolin-4-amine], the melting point is 197 to 199 °C.

One may read the mortality as the share of the test organisms that died. A word on the melting point: it is the temperature, or range, at which the solid turns liquid.

Source of the values: US20240294517A1, “2-[3-[1 [(QUINAZOLIN-4-YL)AMINO]ETHYL]PYRAZIN-2-YL]THIAZOLE-5-CARBONITRILE DERIVATIVES AND SIMILAR COMPOUNDS AS PESTICIDES” (SYNGENTA CROP PROTECTION AG, priority 2021, published 2024).
